This is an account of results in patent publication US20040209799A1, “JAK/STAT pathway inhibitors and the uses thereof” (priority 2000, published 2004).

pEC50, pIC50: −log10 of the molar value.

What all share (type): biochemical
Assay [1] concerns the target IGFR (Insulin-like growth factor receptor) protein tyrosine kinase (Homo sapiens, UniProt P08069). Put plainly: poly (Glu, Tyr) 4:1 ELISA, IGFR. The procedure: (§1) To further examine the inhibition characteristics of DBH (and its variants) to a variety of cellular components, a poly (Glu, Tyr) 4:1 ELISA was performed. Hymenialdisine (H), DBH (as marine sponge extracts: see Chipman and Faulkner, 1997), and three variant forms of synthetic DBH: the free base form of DBH (DBH-2FB), a trifluoroacetic acid salt form of DBH (DBH-2S), and a methanesulfonic acid salt form of DBH (DBH 1) were solubilized in DMSO, and tested for the ability to inhibit; ZAP-70 (ζ-associated polypeptide of 70 kDa) protein tyrosine kinase, BTK (Bruton's agarnrnaglobulinaemia tyrosine kinase), JAK3 (Janus kinase 3) protein tyrosine kinase, LCK (Lymphoid T-cell protein tyrosine kinase), and IGFR (Insulin-like growth factor receptor) protein tyrosine kinase.
(§2) Maxisorb microtiter plates (Nalge Nunc International, Rochester, N.Y.) were coated with 1 mg/ml Poly(Glu,Tyr) 4:1 (Sigma, St. Louis, Mo.) solubilized in phosphate buffered saline (PBS), 0.02% sodium azide. On the day of the assay, microtiter plates were washed 4× with TBS-Tween (25 mM Tris pH 8.0, 150 mM NaCl, 0.05% Tween 20) using a Skatron plate washer (Skatron Instruments, Sterling, Va.). 200 μl of sterile blocking buffer (3% BSA in PBS, 0.02% sodium azide) was added to each well, and the microtiter plates were incubated at 37° C. for 1 hour. The blocking buffer was removed, the plates washed, and various concentrations of inhibitor were added in a 20 μl volume to the wells. 60 μl of the appropriate substrate mix was then added. Substrate mixes were prepared as described in Table 2:
(§3) Following addition of the substrate mix, 20 μl of the test protein tyrosine kinase (in 1× assay buffer) was added. Kinase reactions were incubated 30 min at 37° C., followed by washes in the Skatron plate washer. 100 μl of biotinylated PT-66 anti-phosphotyrosine monoclonal antibody (Sigma, St. Louis, Mo.) (diluted 1:4000 in 0.5% BSA, sterile-filtered TBS) was added to each well, and incubated for an additional 30 minutes at 37° C. […] The samples were then read at 450 nm in a plate reader.
Background: ELISA stands for enzyme-linked immunosorbent assay.

Assay [2] addresses T1, ZAP-70 (ζ-associated polypeptide of 70 kDa) protein tyrosine kinase (Homo sapiens, UniProt P43403).
T1 sequence (P43403 1-619): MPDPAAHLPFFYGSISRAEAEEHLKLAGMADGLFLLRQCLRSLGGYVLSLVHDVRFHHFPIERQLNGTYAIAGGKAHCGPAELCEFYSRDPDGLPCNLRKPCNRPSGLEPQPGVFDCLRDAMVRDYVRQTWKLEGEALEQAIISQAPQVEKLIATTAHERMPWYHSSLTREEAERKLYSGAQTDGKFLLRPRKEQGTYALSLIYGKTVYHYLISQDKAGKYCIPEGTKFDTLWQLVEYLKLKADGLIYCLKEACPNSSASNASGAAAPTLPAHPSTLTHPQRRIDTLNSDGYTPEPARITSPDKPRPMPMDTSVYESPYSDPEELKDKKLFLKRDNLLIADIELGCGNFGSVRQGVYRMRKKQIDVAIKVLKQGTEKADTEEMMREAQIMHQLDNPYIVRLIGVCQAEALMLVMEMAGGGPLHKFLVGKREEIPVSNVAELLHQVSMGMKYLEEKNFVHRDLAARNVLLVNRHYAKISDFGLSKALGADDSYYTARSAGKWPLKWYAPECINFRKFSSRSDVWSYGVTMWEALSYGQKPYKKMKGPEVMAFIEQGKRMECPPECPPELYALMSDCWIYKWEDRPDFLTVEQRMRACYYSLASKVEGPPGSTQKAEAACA
Put plainly: poly (Glu, Tyr) 4:1 ELISA, ZAP-70. As for the experimental part:
as §1, §2, §3

Assay [3] deals with T2, JAK3 (Janus kinase 3) protein tyrosine kinase (Homo sapiens, UniProt P52333).
T2 sequence (P52333 1-1124): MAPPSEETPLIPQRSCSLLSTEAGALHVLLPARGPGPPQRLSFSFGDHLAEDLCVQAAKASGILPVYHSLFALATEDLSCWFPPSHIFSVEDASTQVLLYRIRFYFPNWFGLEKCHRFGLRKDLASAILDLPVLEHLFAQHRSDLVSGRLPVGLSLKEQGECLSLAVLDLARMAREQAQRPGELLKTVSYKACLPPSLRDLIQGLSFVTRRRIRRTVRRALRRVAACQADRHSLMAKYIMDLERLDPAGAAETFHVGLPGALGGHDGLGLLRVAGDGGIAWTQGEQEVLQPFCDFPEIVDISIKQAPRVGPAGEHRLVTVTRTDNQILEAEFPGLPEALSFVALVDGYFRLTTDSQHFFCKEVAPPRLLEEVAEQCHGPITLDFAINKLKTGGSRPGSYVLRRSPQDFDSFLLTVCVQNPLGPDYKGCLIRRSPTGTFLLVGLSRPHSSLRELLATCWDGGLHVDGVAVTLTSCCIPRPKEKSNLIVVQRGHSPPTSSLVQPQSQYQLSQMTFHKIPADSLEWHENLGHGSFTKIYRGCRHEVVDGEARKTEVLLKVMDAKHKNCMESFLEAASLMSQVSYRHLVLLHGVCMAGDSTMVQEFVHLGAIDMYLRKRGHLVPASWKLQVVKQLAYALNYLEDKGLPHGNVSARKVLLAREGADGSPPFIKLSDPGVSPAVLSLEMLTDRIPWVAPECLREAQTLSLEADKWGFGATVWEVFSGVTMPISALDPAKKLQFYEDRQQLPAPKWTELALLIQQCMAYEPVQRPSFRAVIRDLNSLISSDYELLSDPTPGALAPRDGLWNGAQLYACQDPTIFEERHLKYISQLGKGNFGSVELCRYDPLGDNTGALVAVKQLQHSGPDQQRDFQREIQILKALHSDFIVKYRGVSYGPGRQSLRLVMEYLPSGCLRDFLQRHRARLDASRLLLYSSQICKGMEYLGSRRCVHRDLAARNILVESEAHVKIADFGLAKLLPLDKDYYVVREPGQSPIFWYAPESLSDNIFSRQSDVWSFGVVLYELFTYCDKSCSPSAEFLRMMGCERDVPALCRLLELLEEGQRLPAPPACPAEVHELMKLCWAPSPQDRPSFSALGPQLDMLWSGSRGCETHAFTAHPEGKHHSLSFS
Put plainly: poly (Glu, Tyr) 4:1 ELISA, JAK3. Particulars: inhibitors solubilized in DMSO, read-out: ec-50 (effective concentration for 50% inhibition) of JAK3. As for the experimental part:
as §1, §2, §3

Setting [4] is: ec-50 values ranging from hundreds of micromolar to no inhibition (data not shown).

Sequence of IGFR (Insulin-like growth factor receptor) protein tyrosine kinase (P08069 31-1367): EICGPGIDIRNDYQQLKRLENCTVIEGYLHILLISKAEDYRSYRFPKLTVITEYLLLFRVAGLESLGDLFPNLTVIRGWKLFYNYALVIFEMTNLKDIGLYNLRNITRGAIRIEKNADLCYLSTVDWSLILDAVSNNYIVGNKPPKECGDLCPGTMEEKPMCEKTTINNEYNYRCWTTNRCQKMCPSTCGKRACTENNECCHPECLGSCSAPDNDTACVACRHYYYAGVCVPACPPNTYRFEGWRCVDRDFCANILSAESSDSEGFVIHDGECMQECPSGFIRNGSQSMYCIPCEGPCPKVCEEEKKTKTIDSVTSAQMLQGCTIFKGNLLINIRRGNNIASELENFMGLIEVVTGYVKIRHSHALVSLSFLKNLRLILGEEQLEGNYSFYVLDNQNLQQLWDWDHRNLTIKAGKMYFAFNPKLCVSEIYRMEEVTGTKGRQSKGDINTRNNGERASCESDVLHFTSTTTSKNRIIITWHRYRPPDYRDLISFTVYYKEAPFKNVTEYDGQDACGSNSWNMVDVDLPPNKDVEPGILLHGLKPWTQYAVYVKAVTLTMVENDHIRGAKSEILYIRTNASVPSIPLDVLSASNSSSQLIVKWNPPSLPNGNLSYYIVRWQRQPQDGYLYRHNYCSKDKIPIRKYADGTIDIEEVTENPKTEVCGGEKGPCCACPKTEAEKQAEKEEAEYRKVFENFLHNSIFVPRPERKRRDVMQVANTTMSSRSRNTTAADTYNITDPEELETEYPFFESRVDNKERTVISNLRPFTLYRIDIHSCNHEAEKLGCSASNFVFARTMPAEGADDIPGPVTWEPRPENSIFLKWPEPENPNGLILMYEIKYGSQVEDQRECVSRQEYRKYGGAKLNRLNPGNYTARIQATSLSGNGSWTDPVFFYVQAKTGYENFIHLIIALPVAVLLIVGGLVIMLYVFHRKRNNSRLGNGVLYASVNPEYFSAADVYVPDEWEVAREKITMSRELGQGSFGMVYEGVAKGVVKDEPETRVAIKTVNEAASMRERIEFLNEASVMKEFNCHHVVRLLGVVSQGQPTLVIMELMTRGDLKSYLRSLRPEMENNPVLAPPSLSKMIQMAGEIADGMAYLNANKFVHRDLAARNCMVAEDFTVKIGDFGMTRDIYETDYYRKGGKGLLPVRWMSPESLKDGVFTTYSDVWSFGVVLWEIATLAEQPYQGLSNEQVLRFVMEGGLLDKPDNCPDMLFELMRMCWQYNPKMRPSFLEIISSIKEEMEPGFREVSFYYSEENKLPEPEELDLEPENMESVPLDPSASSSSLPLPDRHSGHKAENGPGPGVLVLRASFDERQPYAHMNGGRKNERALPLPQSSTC

For the compound `NC1=NC(=O)C(=C2CCNC(=O)c3[nH]ccc32)N1` [DBH-2FB], the pIC50 in assay [1] (values for the four kinases range from 1971 μM to no inhibition, read-out: α-50 value for IGFR) is no more than 2.71; in assay [2] (values for the four kinases range from 1971 μM to no inhibition, read-out: α-50 value for ZAP-70), no more than 2.71. Further, the pEC50 in assay [3] is 4.94.
With `NC1=NC(=O)C(=C2CCNC(=O)c3[nH]ccc32)N1` [DBH, 4-(2-amino-4-oxo-2-imidazolin-5-ylidene)-4,5,6,7-tetrahydropyrrolo(2,3-c) azepine-8-one], the “Inhibition of IGFR” value in assay [1] (setting [4]) is listed as “weak”. In addition, the “Inhibition of ZAP-70” value in assay [2] (setting [4]) is “weak”. The pEC50 in assay [3] was 4.46 to 4.63.
